Source: ChEMBL document CHEMBL4622974, “Leveraging an Open Science Drug Discovery Model to Develop CNS-Penetrant ALK2 Inhibitors for the Treatment of Diffuse Intrinsic Pontine Glioma” (J Med Chem, 2020)
Each block holds one compound with its values, some of them ahead of it. Calls of active or inactive are those of the source. The rule behind the calls is not given here.

Experiments:
sodium channel site 2 = experiment: Inhibition of rat sodium channel site2 at 10 uM incubated for 60 mins by scintillation counting method
[1] = Toxicity in C57BL/6 mouse assessed as gross pathology at 25 mg/kg, po BID administered for 5 days measured after 24 hrs relative to control; type: organism-based; conditions: in vivo
Cytochrome P450 2D6 = Cytochrome P450 2D6 (Homo sapiens, UniProt P10635); experiment: Inhibition of CYP2D6 in human liver microsomes using dextromethorphan as substrate incubated for 20 mins in presence of NADPH by LC/MS/MS analysis; type: ADME
[2] = Plasma concentration in CD-1 mouse at 1 mg/kg, iv measured at 2 hrs by LC/MS/MS method; type: ADME, organism-based
[3] = Toxicity in C57BL/6 mouse assessed as gross pathology at 25 mg/kg, po QD administered for 5 days measured after 24 hrs relative to control; type: organism-based; conditions: in vivo
Cytochrome P450 2B6 = Cytochrome P450 2B6 (Homo sapiens, UniProt P20813); experiment: Inhibition of CYP2B6 in human liver microsomes using bupropion as substrate incubated for 20 mins in presence of NADPH by LC/MS/MS analysis; type: ADME
[4] = Unbound brain-to-plasma concentration ratio in CD-1 mouse plasma at 1 mg/kg, iv measured at 2 hrs; type: ADME, organism-based; conditions: read-out: K(p,uu,brain)
Cannabinoid receptor 1 = Cannabinoid receptor 1 (Homo sapiens, UniProt P21554); experiment: Inhibition of recombinant human CB1 incubated for 60 mins by scintillation counting method
[5] = Toxicity in C57BL/6 mouse assessed as body weight loss at 25 mg/kg, po QD administered for 5 days measured after 24 hrs relative to control; type: organism-based; conditions: in vivo
[6] = Unbound drug level in CD-1 mouse brain at 1 mg/kg, iv measured at 2 hrs; type: ADME, organism-based; conditions: in vivo
[7] = biological target: Bone morphogenetic protein receptor type-1B (Homo sapiens, UniProt O00238); experiment: Inhibition of human ALK6 using casein as substrate in presence of [gamma-33P]-ATP by radiometric hotspot assay
hERG (KCNH2) = hERG (KCNH2) (Homo sapiens, UniProt Q12809); experiment: Displacement of [3H]dofetilide from recombinant human ERG at 10 uM after 60 mins by scintillation counting analysis; conditions: probe [3H]dofetilide
Cytochrome P450 2C8 = Cytochrome P450 2C8 (Homo sapiens, UniProt P10632); experiment: Inhibition of CYP2C8 in human liver microsomes using paclitaxel as substrate incubated for 20 mins in presence of NADPH by LC/MS/MS analysis; type: ADME
[8] = Toxicity in C57BL/6 mouse assessed as gross pathology at 100 mg/kg, po QD administered for 5 days measured after 24 hrs relative to control; type: organism-based; conditions: in vivo
Cytochrome P450 2C9 = Cytochrome P450 2C9 (Homo sapiens, UniProt P11712); experiment: Inhibition of CYP2C9 in human liver microsomes using tolbutamide as substrate incubated for 20 mins in presence of NADPH by LC/MS/MS analysis; type: ADME
[9] = Toxicity in C57BL/6 mouse assessed as body weight loss at 50 mg/kg, po QD administered for 5 days measured after 24 hrs relative to control; type: organism-based; conditions: in vivo
Cytochrome P450 1A2 = Cytochrome P450 1A2 (Homo sapiens, UniProt P05177); experiment: Inhibition of CYP1A2 in human liver microsomes using phenacetin as substrate incubated for 20 mins in presence of NADPH by LC/MS/MS analysis; type: ADME
[10] = Toxicity in C57BL/6 mouse assessed as mouse death at 25 mg/kg, po QD administered for 5 days measured after 24 hrs; type: organism-based; conditions: in vivo
[11] = biological target: Alpha-2A adrenergic receptor (Homo sapiens, UniProt P08913); experiment: Inhibition of recombinant human adrenergic alpha2A receptor incubated for 60 mins by scintillation counting method
[12] = Unbound plasma concentration in CD-1 mouse […] at 1 mg/kg, iv measured at 2 hrs by LC/MS/MS method; type: ADME, organism-based; conditions: in vivo
[13] = Protein binding in CD-1 mouse plasma at 1 mg/kg, iv measured at 2 hrs by LC/MS/MS method; type: ADME, organism-based; conditions: read-out: PPB
[14] = biological target: Serine/threonine-protein kinase NLK (Homo sapiens, UniProt Q9UBE8); experiment: Inhibition of NLK (unknown origin)
[15] = Plasma concentration in NOD/SCID mouse at 25 mg/kg, po measured after 0.5 to 6 hrs; type: ADME, organism-based; conditions: in vivo
TGF-beta receptor type-1 = biological target: T1, TGF-beta receptor type-1 (Homo sapiens, UniProt P36897); experiment: Inhibition of human ALK5 using casein as substrate in presence of [gamma-33P]-ATP by radiometric hotspot assay; type: ADME
T1 sequence (P36897 whole entry): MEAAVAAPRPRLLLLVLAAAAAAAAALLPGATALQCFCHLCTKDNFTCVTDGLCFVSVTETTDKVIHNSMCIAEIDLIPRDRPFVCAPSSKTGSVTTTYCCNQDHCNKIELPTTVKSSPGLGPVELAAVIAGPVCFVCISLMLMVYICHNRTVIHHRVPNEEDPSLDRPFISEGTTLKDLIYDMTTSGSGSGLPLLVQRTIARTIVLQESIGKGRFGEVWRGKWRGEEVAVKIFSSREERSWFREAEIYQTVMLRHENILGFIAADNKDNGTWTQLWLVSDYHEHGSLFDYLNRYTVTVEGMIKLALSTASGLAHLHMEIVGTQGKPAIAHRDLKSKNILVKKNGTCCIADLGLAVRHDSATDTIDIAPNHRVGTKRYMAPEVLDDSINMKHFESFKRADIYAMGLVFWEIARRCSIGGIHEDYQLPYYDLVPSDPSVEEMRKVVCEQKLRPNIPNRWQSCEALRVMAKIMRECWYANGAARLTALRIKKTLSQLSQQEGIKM

[16] = biological target: Tyrosine-protein kinase Lyn (Homo sapiens) (UniProt P07948); experiment: Inhibition of LYN (unknown origin)
Activin receptor type-1 = biological target: T2, Activin receptor type-1 (Homo sapiens, UniProt Q04771); experiment: Inhibition of human ALK2 using casein as substrate in presence of [gamma-33P]-ATP by radiometric hotspot assay
T2 sequence (Q04771 whole entry): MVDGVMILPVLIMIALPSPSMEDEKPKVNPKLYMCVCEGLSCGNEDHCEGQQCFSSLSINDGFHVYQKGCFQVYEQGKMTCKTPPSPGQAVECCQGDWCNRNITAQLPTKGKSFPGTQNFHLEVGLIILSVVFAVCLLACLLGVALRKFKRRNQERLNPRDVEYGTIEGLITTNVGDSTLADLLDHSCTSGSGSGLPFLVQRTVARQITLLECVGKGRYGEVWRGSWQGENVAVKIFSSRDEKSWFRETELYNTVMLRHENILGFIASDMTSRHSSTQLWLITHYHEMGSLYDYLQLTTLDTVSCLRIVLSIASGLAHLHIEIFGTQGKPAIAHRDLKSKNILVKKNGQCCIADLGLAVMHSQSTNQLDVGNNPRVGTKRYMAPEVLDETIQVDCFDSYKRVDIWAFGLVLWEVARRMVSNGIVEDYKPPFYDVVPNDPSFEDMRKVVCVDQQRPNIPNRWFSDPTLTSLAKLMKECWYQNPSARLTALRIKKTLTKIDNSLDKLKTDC

[17] = biological target: Voltage-gated inwardly rectifying potassium channel KCNH2 (Homo sapiens, UniProt Q12809); experiment: Inhibition of human ERG expressed in HEK293 cells after 5 mins by IonWorks barracuda patch clamp method; type: cell-based

Cannabinoid receptor 1, sequence (P21554 whole entry): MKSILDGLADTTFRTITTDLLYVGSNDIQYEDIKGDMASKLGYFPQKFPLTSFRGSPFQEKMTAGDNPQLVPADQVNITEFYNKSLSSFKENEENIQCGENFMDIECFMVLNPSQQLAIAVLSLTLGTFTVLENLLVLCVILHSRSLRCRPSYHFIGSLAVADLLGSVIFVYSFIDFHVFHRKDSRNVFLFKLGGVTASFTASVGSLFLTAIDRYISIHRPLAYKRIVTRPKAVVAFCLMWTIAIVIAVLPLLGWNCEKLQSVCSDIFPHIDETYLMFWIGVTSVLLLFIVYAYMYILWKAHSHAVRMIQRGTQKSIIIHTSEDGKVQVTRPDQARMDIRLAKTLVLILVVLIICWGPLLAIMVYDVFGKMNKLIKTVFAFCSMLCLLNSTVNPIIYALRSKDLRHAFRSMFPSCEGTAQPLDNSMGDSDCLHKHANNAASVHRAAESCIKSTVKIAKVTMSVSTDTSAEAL
Bone morphogenetic protein receptor type-1B, sequence (O00238 whole entry): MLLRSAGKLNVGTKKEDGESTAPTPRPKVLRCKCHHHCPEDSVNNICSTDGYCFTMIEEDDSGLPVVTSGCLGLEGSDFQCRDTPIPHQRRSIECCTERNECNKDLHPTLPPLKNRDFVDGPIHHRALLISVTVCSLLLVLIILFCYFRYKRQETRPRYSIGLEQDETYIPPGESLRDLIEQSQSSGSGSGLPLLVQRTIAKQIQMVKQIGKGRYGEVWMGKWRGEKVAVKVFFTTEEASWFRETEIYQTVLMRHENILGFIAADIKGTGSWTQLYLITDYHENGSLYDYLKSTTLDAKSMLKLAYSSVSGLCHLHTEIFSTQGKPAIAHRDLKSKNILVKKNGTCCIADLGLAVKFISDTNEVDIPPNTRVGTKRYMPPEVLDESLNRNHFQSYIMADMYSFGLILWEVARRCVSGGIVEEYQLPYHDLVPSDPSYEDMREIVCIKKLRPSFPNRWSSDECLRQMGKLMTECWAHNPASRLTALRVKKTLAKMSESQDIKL
Alpha-2A adrenergic receptor, sequence (P08913 whole entry): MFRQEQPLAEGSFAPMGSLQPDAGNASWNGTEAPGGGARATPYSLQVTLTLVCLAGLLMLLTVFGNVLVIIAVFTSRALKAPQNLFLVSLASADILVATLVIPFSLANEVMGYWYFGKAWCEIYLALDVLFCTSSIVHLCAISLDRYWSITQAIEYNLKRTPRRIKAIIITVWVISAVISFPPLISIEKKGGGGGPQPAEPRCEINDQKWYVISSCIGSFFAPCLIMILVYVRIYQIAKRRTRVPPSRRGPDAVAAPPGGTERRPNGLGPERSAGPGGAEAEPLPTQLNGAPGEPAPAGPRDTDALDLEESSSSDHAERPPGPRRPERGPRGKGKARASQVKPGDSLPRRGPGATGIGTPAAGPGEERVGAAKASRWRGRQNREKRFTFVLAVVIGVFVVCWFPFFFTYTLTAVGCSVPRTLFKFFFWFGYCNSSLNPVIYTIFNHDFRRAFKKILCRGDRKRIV
Cytochrome P450 2B6, sequence (P20813 whole entry): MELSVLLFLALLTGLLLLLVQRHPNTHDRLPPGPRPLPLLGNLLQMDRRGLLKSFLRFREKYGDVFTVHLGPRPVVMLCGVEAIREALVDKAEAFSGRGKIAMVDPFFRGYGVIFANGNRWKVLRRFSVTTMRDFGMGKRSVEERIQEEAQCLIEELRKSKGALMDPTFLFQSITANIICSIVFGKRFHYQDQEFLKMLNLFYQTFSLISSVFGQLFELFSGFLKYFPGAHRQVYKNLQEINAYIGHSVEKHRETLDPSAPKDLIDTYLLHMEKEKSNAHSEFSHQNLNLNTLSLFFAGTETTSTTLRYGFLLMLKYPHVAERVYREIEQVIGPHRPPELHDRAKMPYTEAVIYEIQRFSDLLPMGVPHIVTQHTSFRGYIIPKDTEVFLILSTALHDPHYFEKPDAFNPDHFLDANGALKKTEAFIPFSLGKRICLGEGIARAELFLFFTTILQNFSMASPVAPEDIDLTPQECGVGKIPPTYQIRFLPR
Cytochrome P450 2D6, sequence (P10635 whole entry): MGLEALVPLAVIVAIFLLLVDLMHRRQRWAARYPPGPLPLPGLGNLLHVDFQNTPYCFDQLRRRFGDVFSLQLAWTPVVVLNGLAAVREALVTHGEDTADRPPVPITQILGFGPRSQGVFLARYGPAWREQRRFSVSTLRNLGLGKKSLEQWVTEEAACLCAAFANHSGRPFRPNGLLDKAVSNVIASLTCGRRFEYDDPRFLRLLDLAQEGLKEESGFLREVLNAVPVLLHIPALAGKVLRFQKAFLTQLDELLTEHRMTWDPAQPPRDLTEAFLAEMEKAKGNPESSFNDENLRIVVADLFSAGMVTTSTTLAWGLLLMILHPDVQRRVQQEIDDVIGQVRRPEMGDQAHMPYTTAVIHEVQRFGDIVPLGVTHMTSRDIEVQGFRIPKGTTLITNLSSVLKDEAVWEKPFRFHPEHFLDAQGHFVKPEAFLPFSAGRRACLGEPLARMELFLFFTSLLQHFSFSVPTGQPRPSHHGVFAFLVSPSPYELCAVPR
Cytochrome P450 2C9, sequence (P11712 whole entry): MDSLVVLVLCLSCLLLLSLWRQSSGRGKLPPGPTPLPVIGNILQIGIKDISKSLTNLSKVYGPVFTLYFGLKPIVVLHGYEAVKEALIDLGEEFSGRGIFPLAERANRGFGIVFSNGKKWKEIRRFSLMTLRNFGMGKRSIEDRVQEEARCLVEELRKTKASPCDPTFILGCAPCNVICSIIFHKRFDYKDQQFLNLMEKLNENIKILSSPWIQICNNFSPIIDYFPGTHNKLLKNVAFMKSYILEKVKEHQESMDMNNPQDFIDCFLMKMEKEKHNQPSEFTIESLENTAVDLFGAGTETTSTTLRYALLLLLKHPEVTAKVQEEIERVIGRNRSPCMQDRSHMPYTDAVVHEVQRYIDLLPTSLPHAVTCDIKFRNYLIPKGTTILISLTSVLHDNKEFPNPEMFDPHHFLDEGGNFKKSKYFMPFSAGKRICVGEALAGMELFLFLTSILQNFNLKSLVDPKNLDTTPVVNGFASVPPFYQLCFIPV
Cytochrome P450 2C8, sequence (P10632 whole entry): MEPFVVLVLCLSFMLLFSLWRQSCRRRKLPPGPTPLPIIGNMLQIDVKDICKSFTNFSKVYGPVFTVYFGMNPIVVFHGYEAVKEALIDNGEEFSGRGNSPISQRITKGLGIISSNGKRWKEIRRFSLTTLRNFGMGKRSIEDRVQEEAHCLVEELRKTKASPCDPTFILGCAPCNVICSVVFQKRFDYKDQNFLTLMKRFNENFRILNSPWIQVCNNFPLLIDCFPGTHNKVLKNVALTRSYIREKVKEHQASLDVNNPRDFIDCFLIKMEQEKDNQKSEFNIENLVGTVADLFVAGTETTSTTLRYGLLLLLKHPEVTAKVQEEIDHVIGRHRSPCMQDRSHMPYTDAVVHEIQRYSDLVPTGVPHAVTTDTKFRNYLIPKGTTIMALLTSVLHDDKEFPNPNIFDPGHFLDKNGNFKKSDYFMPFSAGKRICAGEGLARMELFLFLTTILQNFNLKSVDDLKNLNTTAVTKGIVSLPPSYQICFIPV
Cytochrome P450 1A2, sequence (P05177 whole entry): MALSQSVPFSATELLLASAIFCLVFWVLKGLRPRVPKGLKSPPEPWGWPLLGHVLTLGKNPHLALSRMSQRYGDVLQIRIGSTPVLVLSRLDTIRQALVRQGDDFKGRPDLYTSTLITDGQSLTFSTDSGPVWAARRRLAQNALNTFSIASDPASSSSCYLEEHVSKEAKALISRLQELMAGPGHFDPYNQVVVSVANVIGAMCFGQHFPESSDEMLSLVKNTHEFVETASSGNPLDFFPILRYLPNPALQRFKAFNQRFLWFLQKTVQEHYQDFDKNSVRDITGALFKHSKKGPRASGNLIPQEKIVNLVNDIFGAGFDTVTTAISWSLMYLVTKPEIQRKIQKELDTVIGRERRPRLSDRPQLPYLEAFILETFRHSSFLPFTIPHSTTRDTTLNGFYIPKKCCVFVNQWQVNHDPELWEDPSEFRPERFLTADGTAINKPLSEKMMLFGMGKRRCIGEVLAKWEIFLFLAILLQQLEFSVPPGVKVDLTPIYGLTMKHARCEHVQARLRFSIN
Tyrosine-protein kinase Lyn (Homo sapiens), sequence (P07948 2-512 limits assumed): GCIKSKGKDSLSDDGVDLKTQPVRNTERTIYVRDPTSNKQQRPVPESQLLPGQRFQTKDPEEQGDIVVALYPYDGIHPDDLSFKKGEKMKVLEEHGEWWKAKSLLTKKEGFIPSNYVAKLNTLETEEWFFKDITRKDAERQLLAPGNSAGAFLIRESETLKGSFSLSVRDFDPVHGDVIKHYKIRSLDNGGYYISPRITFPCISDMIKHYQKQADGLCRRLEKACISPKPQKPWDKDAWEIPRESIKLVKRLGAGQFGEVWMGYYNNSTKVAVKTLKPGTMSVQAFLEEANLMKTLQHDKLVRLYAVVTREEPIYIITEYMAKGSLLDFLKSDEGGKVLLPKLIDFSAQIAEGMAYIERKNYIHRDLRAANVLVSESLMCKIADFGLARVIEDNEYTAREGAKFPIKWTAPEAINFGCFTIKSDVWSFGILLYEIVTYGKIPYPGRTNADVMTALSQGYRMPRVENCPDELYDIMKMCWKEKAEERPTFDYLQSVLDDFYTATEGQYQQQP
Serine/threonine-protein kinase NLK, sequence (Q9UBE8 whole entry): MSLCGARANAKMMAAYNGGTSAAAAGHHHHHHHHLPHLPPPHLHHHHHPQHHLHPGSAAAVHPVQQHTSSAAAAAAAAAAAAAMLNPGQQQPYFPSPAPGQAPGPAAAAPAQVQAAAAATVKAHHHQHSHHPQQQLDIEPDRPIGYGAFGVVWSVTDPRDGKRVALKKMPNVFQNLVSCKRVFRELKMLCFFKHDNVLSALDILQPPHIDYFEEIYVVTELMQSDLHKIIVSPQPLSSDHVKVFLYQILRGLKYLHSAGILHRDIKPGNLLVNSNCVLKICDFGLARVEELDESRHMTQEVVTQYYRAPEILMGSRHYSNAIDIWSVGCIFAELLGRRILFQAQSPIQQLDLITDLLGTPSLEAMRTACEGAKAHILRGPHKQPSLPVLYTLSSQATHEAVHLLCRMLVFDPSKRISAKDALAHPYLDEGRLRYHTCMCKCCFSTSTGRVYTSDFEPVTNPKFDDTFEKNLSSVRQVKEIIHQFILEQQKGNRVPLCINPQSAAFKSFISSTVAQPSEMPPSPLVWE

SMILES: COc1cc(-c2cncc(-c3ccc(N4CCNCC4)cc3)c2C)cc(OC)c1OC
inhibition at 1 h, 10 µM (sodium channel site 2): 72% | Activity [1]: Non-Toxic | IC50 (Cytochrome P450 2D6): > 30 µM | concentration at 2 h [2]: 156 nM | Activity [3]: Non-Toxic | IC50 (Cytochrome P450 2B6): > 30 µM | Kp uu at 2 h [4]: 0.3 | IC50 (Cannabinoid receptor 1): 1.72 µM | Activity [5]: Non-Toxic | Drug uptake(free) [6]: 3.7 nM | IC50 [7]: 0.068 µM | inhibition at 1 h, 10 µM (hERG (KCNH2)): 69% | IC50 (Cytochrome P450 2C8): > 30 µM | Activity [8]: Non-Toxic | IC50 (Cytochrome P450 2C9): > 30 µM | Activity [9]: Non-Toxic | IC50 (Cytochrome P450 1A2): > 30 µM | Activity [10]: Non-Toxic | IC50 [11]: 2.18 µM | Cp(f) [12]: 14 nM | fraction unbound at 2 h [13]: 0.09 | IC50 [14]: 0.336 to 0.924 µM | concentration [15]: 7460 nM

IC50 (TGF-beta receptor type-1): > 5 µM | inhibition [16]: Active | IC50 (Activin receptor type-1): 0.007 µM
SMILES: COc1cc(-c2cncc(-c3ccc(C4CCN(C)CC4)cc3)c2C)cc(OC)c1OC
IC50 [17]: 4.8 µM
